{
  "source": "patent US12031087B2",
  "about": "“Oxygenated solvents for improved production of oil and gas” (Board of Regents, The University of Texas System, priority 2019, dated 2024)",
  "key": {"[1]": {"assay": "Density and viscosity of 3p, 3pRB and surfactant solution", "type": "physicochemical", "details": "347 K and atmospheric pressure"}, "[2]": {"assay": "Spontaneous imbibition in Amott cells", "details": "oil diluted by 18.6 wt % 3p"}, "[3]": {"assay": "Miscibility of 3p with crude oil", "type": "physicochemical", "details": "room temperature, 30-95 wt % 3p", "from_the_text": "3-Pentanone properties. […] The density of 3p is 760 kg/m^3 at the experimental conditions in this research (347 K and atmospheric pressure)."}, "[4]": {"assay": "IFT experiments by spinning drop tensiometer", "type": "physicochemical", "details": "347 K", "protocol": "IFT experiments. […] During the measurement, the denser phase was placed into a horizontal tube first, and then a droplet of the less dense phase was placed into the horizontal tube while the tube was rotating. The droplet was deformed owing to the rotation, which was visualized by using a high-power monochromatic light-emitting diode and stroboscope. The shape of a droplet spinning in the capillary tube was recorded by a high-resolution camera.\nIFT values were measured for four systems: (1) crude oil and RB, (2) 3p and 1.1-wt % 3 pRB, (3) crude oil and 1.1-wt % 3 pRB, and (4) crude oil diluted by 18.6 wt % 3p and 0.8-wt % 3 pRB. System 1 was at phase equilibrium. A certain level of mass transfer was expected during the IFT measurement for the other three pseudo-binary systems. In system 2, water could transfer from 1.1-wt % 3 pRB to the 3p-rich phase. An IFT was estimated by using the densities of 3p and 1.1-wt % 3 pRB. In system 3, 3p could be transferred from RB to crude oil, which reduced the density of the oleic phase. Therefore, the upper-limit and lower-limit density values were assigned for the oleic phase to calculate a possible range of IFTs for this system. System 4 was tested to validate the range of IFT values estimated for system 3."}, "[5]": {"assay": "Solubility (quantitative 1H NMR) and aqueous stability of 3-pentanone in reservoir brine", "details": "347 K"}, "[6]": {"assay": "Coreflooding of fractured cores with 3pRB or pure 3p slug and material balance (Example 3)", "protocol": "Experimental Procedure for Coreflooding. Four Texas cream limestone cores were prepared for coreflooding experiments, having a diameter of 0.0254 m and a length of 0.229 m. […] The porosities, permeabilities and water and oil saturations were measured for all cores. […] The system includes two accumulators for oil and RB, a core holder, a manual pump to maintain the overburden pressure, a pressure gauge, a differential pressure gauge, fluid collectors, and an oven. […] Two Teflon strips of 0.001 m in width and 0.229 m in length were placed inside the fracture to keep an aperture of the fracture. The core halves were put together with the Teflon strips in place, and wrapped with a heat-shrinkable Teflon tube. Finally, the core was placed horizontally inside the core holder with the fracture vertically-oriented. FIG. 27 presents a schematic of the setup for the coreflooding experiments. […] After placing a fractured core in the core holder, the oven temperature was set to reservoir temperature (347 K). […] Fracture permeability was measured using a flow rate of 100 cm^3/hr. […] This range was calculated from available data of fracture conductivity, fracture width, and matrix permeability for shale plays. […] The fracture permeability was then calculated from the fracture aperture by the following equation: kf=b^2/12. […] Then, the produced oil for Δt is expressed as -VP2=([…]). […]"}, "[7]": {"assay": "Solubility of water in 3p", "type": "physicochemical", "details": "343 K"}},
  "data": [
    {"smiles": "CCC(=O)CC", "note": "[3-pentanone]", "values": [
      {"measurement": "Density", "setting": "[1]", "result": 760, "unit": "kg/m^3"},
      {"measurement": "increase of oleic phase saturation (oil swelling)", "setting": "[2]; 347 K, atmospheric pressure", "result": 24, "unit": "%"},
      {"measurement": "enhancement of oil recovery rate because of oil dilution by 3p (scaling theory)", "setting": "[2]; spontaneous imbibition", "result": 13, "unit": "%"},
      {"measurement": "phase separation of 3p/crude oil mixtures", "setting": "[3]", "result": "No phase separation was observed"},
      {"measurement": "effect of 3p on IFT between oleic and aqueous phases", "setting": "[4]; 1.1 wt % 3p in aqueous phase", "result": "essentially no effect"},
      {"measurement": "IFT", "setting": "[4]; system 2: 3p and 1.1-wt % 3pRB, atmospheric pressure", "result": 10.02, "unit": "mN/m"},
      {"measurement": "3p solubility in deionized water", "setting": "[5]", "result": 2.59, "unit": "wt %"},
      {"measurement": "aqueous stability of 3p in RB (salt precipitation)", "setting": "[5]; overall 3p 0.1-40 wt %", "result": "No salt precipitation was observed"},
      {"measurement": "solubility limit of 3-pentanone in RB", "setting": "[5]; reservoir brine 68722 ppm, quantitative 1H NMR", "result": 1.1, "unit": "wt %"},
      {"measurement": "incremental oil recovery, chase RB after 3p slug", "setting": "[6]; core #3 (Swi=0), after 0.36 PVI", "result": 1.1, "unit": "% OOIP"},
      {"measurement": "incremental oil recovery, chase RB after 3p slug", "setting": "[6]; core #4 (Swi=0.28), after 1.97 PVI", "result": 3.7, "unit": "% OOIP"},
      {"measurement": "solubility of water in 3p", "setting": "[7]", "result": "approximately 3 wt %"}
    ]}
  ]
}
